Reference: patent publication US20260137671A1, “PDK4 as a Cell-Aging Intervention Target and Its Use in Chemotherapy and Anticancer” (Shanghai Institute of Nutrition and Health, Chinese Academy …, priority 2022, published 2026)

Tests used:
[1] = tested on: MDA-MB-231 breast cancer cells xenografted together with HBF1203 breast stromal cells; assay: MDA-MB-231/HBF1203 xenograft, tumor end volume after chemotherapy and/or PDK4-IN; type: in vivo, SCID mice; settings: DTX 1.0 mg/kg with PDK4-IN; FIG. 73
Description: All experimental mouse experiments were carried out in strict accordance with the relevant regulations of the Institutional Animal Care and Use Committee (IACUC), Shanghai Institutes for Biological Sciences, Chinese Academy of Sciences. Immuno-deficient mice ICR SCID mice (body weight about 25 g) aged about 6 weeks were used for animal experiments related to the present disclosure. Stromal cells PSC27 and epithelial cells were mixed at a ratio of 1:4, and each graft contained 1.25×10^6 cells for tissue remodeling. The xenograft tumors were implanted into mice by subcutaneous transplantation, and the animals were euthanized 8 weeks after the end of the transplantation surgery. Tumor volume was calculated according to the following formula: V=(π/6)×(([…])/2)^3 (V, volume; 1, length; w, width).
For pre-clinical chemotherapeutic studies, mice received subcutaneous implantation were given standard laboratory diets. […] The time points were on the first day of the third, fifth and seventh weeks, with a total of 3 cycles of treatment, and each cycle lasted for 2 weeks. After the course of treatment, mouse […] were collected for tumor measurement and histological analysis. […] In order to cause systemic expression of SASP factors induced by chemotherapy, MIT was administered to mice through intravenous infusion according to the above steps and sequence, but the dose was reduced to 0.1 mg/kg body weight/each time (the cumulative dose of MIT received in the whole course of treatment was 0.3 mg/kg body weight) to reduce drug-related toxicity. The chemotherapy experiment ended at the end of the 8th week, and the mice were dissected immediately after sacrifice, and the xenograft tumors were collected and used for pathological system analysis.
To assess the in vivo effects of chemotherapeutic drugs and/or PDK4-IN treatment in different tumor types, the inventors subsequently generated xenografts composed of breast cancer cell line MDA-MB-231 and breast stromal cell line HBF1203 to replicate the preclinical intervention observed in prostate cancer xenografts.

HTR2B = biological target: T1, HTR2B (Homo sapiens, UniProt P41595); assay: Malignant phenotype of HTR2B-transduced PCa lines with HTR2B antagonist; type: cell-based; settings: PCa lines PC3, DU145, M12; antagonist applied under culture conditions
T1 construct: expressed in transfected cells; host or cells: PCa cell lines (PC3, DU145, M12)
Description: FIG. 59. Left, appraisal of the proliferation capacity of PCa lines under different conditions. As the experimental group, human HTR2B was transduced into each PCa cell line, and LY 266097 was used in the culture medium as a control for drug treatment. Middle, measurement of the migration ability of PCa lines under different conditions, with cells treated similarly as described above. Right, measurement of the migration ability of PCa lines under different conditions, with cells treated similarly as described above.
(§1) After PSC27 cells were cultured in DMEM+0.5% FBS medium for 3 days, then the cell population was washed thoroughly with 1×PBS. After a simple centrifugation, the supernatant was collected as conditioned medium, stored at −80° C. or used directly. Prostate epithelial cells are subjected to in vitro experiments during continuous culture in this conditioned medium for 3 days. For chemotherapy resistance, epithelial cell lines were cultured either in low-serum DMEM (0.5% FBS) (referred to as “DMEM”) or in conditioned medium. Simultaneously, mitoxantrone (MIT) was used to treat cells for 1 to 3 days at concentrations close to the IC50 values for each cell line, followed by observation under a bright-field microscope.
More importantly, the transduction of HTR2B enhanced resistance of PCa cells to mitoxantrone (MIT). […]

[2] = tested on: cancer cells in tumors (PC3/PSC27 xenografts); assay: DNA damage and apoptosis in tumors by IHC (γ-H2AX, cleaved caspase 3); type: in vivo, SCID mice
Description: FIG. 69. Statistical evaluating values of DNA-damaged cells and apoptotic cells in analyzed tumor specimens, represented as a percentage of cells positively stained by IHC with antibodies against γ-H2AX or caspase 3 (cleaved).
FIG. 70. Representative IHC images of caspase 3 (cleaved) in tumors at the end of therapeutic regimens. Biopsies of placebo-treated animals served as negative controls for drug-treated mice. Scale bar, 100 μm.
Considering the primary in vivo expressive results with MIT and/or PDK4-IN treatment, the inventors next asked how pharmacologically targeting PDK4 could enhance the therapeutic response of tumors. To disclose the possible mechanism(s), the inventors chose to dissect tumors from animals 7 days after initiation of treatment, a timepoint right before the development of resistant colonies.

[3] = tested on: PC3 cells xenografted together with PSC27 cells; assay: PC3/PSC27 xenograft, tumor end volume after chemotherapy and/or PDK4-IN; type: in vivo, SCID mice; settings: MIT alone, 0.2 mg/kg i.p., first day of weeks 3, 5, 7; end of 8-week regimen
Description: All experimental mouse experiments were carried out in strict accordance with the relevant regulations of the Institutional Animal Care and Use Committee (IACUC), Shanghai Institutes for Biological Sciences, Chinese Academy of Sciences. Immuno-deficient mice ICR SCID mice (body weight about 25 g) aged about 6 weeks were used for animal experiments related to the present disclosure. Stromal cells PSC27 and epithelial cells were mixed at a ratio of 1:4, and each graft contained 1.25×10^6 cells for tissue remodeling. The xenograft tumors were implanted into mice by subcutaneous transplantation, and the animals were euthanized 8 weeks after the end of the transplantation surgery. […] For pre-clinical chemotherapeutic studies, mice received subcutaneous implantation were given standard laboratory diets. […] The time points were on the first day of the third, fifth and seventh weeks, with a total of 3 cycles of treatment, and each cycle lasted for 2 weeks. After the course of treatment, mouse […] were collected for tumor measurement and histological analysis. […] The chemotherapy experiment ended at the end of the 8th week, and the mice were dissected immediately after sacrifice, and the xenograft tumors were collected and used for pathological system analysis. To closely mimic clinical conditions involving chemotherapeutic drugs, the inventors designed a preclinical regimen incorporating a genotoxic drug (MIT) and/or the PDK4 inhibitor (PDK4-IN) (FIG. 63).

PC3 = assay: MIT-based viability assay of PC3; type: cell-based, human; settings: PC3, range of concentrations of MIT
Description: FIG. 61. Dose-response curves (non-linear regression/curve fit) plotted from MIT-based viability assays of PC3 exposed to the CM of PSC27-PDK4 cells and treated by a range of concentrations of MIT.
as §1

[4] = tested on: tumor tissues of mice (PC3/PSC27 xenografts); assay: In vivo cellular senescence and SASP expression in xenograft tumors (LCM transcripts, SA-β-Gal staining); parameters: species or system SCID mice; settings: histological staining, FIG. 68
Description: (§2) FIG. 66. Transcript assessment of several canonical SASP factors expressed in stromal cells isolated from tumors in SCID mice. LCM isolation, total RNA preparation and expression assays on tissues from animals with simultaneously implanted stromal cells and cancer cells. Note that the group measured as of the lowest value was used as normalization baseline per factor.
as §2, with “67.” for “66.”, “individual” for “several”, “factors (AREG), aging markers (p16/p21) and PDK4” for “factors”
FIG. 68. Representative IHC images of SA-β-Gal staining chromatograms from tissues isolated from animals subjected to placebo or drug treatments. Scale bar, 100 μm. Right, Comparative statistical analysis of SA-β-Gal staining for tissues in mice mentioned above.
Senescence-associated β-galactosidase (SA-β-Gal) staining was performed following a previously reported procedure (Debacq-Chainiaux et al., 2009). Briefly, cells in culture dishes were washed with PBS and fixed at room temperature. Cells were fixed in 2% formaldehyde and 0.2% glutaraldehyde for 3 minutes. SA-β-Gal was used for staining with freshly prepared staining solution overnight at 37° C. Images were taken on the next day and the percentage of positive cells per unit area was calculated.
For pre-clinical chemotherapeutic studies, mice received subcutaneous implantation were given standard laboratory diets. […] The time points were on the first day of the third, fifth and seventh weeks, with a total of 3 cycles of treatment, and each cycle lasted for 2 weeks. After the course of treatment, mouse […] were collected for tumor measurement and histological analysis. […]

T1 sequence (P41595 whole entry): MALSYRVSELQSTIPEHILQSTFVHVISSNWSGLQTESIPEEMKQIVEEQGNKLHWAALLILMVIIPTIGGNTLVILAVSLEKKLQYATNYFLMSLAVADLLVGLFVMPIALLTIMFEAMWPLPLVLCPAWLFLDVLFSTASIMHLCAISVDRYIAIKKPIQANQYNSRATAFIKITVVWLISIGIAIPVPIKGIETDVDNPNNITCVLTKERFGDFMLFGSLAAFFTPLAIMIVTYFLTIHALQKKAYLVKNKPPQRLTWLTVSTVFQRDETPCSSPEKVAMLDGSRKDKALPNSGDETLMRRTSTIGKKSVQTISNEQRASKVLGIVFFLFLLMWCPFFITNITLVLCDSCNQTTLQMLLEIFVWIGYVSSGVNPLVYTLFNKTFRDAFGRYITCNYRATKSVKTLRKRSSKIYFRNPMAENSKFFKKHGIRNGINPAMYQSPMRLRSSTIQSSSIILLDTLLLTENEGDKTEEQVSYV

Structure (SMILES): CC(=O)O[C@@]12CO[C@@H]1C[C@H](O)[C@@]1(C)C(=O)[C@H](O)C3=C(C)[C@@H](OC(=O)[C@H](O)[C@@H](NC(=O)OC(C)(C)C)c4ccccc4)C[C@@](O)([C@@H](OC(=O)c4ccccc4)[C@H]21)C3(C)C [docetaxel (DTX), docetaxel]
- tumor regression by combination with PDK4-IN (non-genotoxic drug) [1]: unable to replicate the effects

Structure (SMILES): COc1ccc(CC2NCCc3c2[nH]c2ccc(C)cc32)c(Cl)c1OC.Cl (stereo not shown) [LY 266097]
- HTR2B-conferred gain of proliferation, migration, invasion and resistance to MIT (HTR2B): generally lost

Structure (SMILES): O=C1c2c(O)ccc(O)c2C(=O)c2c(NCCNCCO)ccc(NCCNCCO)c21 [MIT, mitoxantrone]
- caspase 3 cleavage (IHC) ([2]; MIT administration alone): increased caspase 3 cleavage
- DNA damage and apoptosis in cancer cells ([2]; tumors dissected 7 days after initiation of treatment, single agent): caused substantial DNA damage and apoptosis
- tumor shrinkage (tumor volume reduction) [3]: 57.5%
- survival curve of cancer cells under genotoxic stress (PC3): declined trend
- SA-β-gal positivity in tumor tissues [4]: elevated SA-β-gal positivity
